Source: US12629387B2, “Composition of antiviral agent for use in prophylactic or post-exposure treatment of infectious or respiratory diseases” (InspirMed Corp., priority 2020, dated 2026)
pEC50: −log10 of the molar value.

How the values were obtained:
[1] = test system: SARS-CoV-infected human airway epithelial (HAE) cells; conditions: read-out: in vitro antiviral EC50; cited from earlier work
[2] = Pharmacokinetics and tissue distribution study of HCQ in SD rats after single-dose IV/IT Free HCQ or IT TLC19 (Study No. PK20021); conditions: for concentration at 24 h / AUC(0-t) / Cmax: Sprague-Dawley, rat, in vivo; for concentration at 24 h: 0.59 mg/animal; for AUC(0-t) / Cmax: 0.59 mg; for Cmax: Cmax of HCQ; for Cmax / Tmax of HCQ / AUC0-72 of HCQ: Free HCQ, 0.590 mg/animal; for Tmax of HCQ: median; for mean HCQ concentration in lung, starting value of decline: start of the first 24 hours post-dose

N#C[C@@]1(c2ccc3c(N)ncnn23)O[C@H](CO)[C@@H](O)[C@H]1O [GS-441524, (2R,3R,4S,5R)-2-(4-aminopyrrolo[2,1-f][1,2,4]triazin-7-yl)-3,4-dihydroxy-5-(hydroxymethyl) oxolane-2-carbonitrile]
pEC50 [1]: 6.74

CCN(CCO)CCCC(C)Nc1ccnc2cc(Cl)ccc12 (stereo not drawn) [Free HCQ, hydroxychloroquine]
concentration at 24 h [2]: 2160 ng/g
AUC(0-t) ([2]; inhaled or intranasal): 2.26 µg·h/mL
Cmax ([2]; inhaled or intranasal, rat blood, IT administration): 0.477 µg/mL
Cmax ([2]; inhaled or intranasal, rat heart, IT administration): 3800 ng/g
Cmax ([2]; inhaled or intranasal, rat lung, IT administration): 47800 ng/g
AUC(0-t) ([2]; iv): 2.33 µg·h/mL
Cmax ([2]; iv, rat blood, IV injection): 0.433 µg/mL
Cmax ([2]; iv, rat heart, IV injection): 4500 ng/g
Cmax ([2]; iv, rat lung, IV injection): 9400 ng/g
concentration at 24 h ([2]; iv): 3770 ng/g
overall systemic exposures (Cmax and AUC), IV group compared with IT group ([2]; rat blood, Free HCQ 0.590 mg/animal): similar
Tmax of HCQ ([2]; rat blood, IT administration): 15 min
Tmax of HCQ ([2]; rat blood, IV injection): 15 min
AUC0-72 of HCQ ([2]; rat heart, IT administration): 64.2 µg·h/g
Tmax of HCQ ([2]; rat heart, IT administration): 15 min
AUC0-72 of HCQ ([2]; rat heart, IV injection): 67.2 µg·h/g
Tmax of HCQ ([2]; rat heart, IV injection): 15 min
mean HCQ concentration in lung, starting value of decline ([2]; rat lung, Free HCQ IT group): 47.8 µg/g
mean HCQ concentration in lung, starting value of decline ([2]; rat lung, Free HCQ IV group): 9.4 µg/g
AUC0-72 of HCQ ([2]; rat lung, IT administration): 329 µg·h/g
Tmax of HCQ ([2]; rat lung, IT administration): 15 min
AUC0-72 of HCQ ([2]; rat lung, IV injection): 252 µg·h/g
Tmax of HCQ ([2]; rat lung, IV injection): 15 min
